From US4428943A, “(N-Phosphonacetyl-L-aspartato) (1,2-diaminocyclohexane)platinum(II) or alkali metal salt” (priority 1981, dated 1984)

Assays:
L1210 leukemia = assay: Survival of mice bearing L1210 leukemia, Pt-268 alone (LD50, optimal dose, therapeutic safety ratio); type: in vivo, mice (BDF1)
Experimental: Mice received 10^6 L1210 cells on Day 0 via intraperitoneal route. Pt-268 was given intraperitoneally on Day 1 only in 5% glucose solution.
Mice received 10^6 L1210 cells on Day 0 via intraperitoneal route. Pt-268 was given intraperitoneally on Days 1, 5, and 9 in 5% glucose solution.
The BDF1 mice received 10^6 L1210 leukemia cells by I.P. injection on Day 0 and were divided into groups of 10, including a control group of 40 mice. The treated groups were treated on Day 1 only at different dose levels from 10 mg/kg to 200 mg/kg or treated on Days 1, 5, and 9 at dose levels from 2.5 mg/kg to 50 mg/kg.

L1210 cells = assay: Combination of Pt-268 with cisplatin in mice bearing L1210 leukemia (FIG. 4); type: in vivo, BDF1 mice; settings: 5 mg/kg on Day 3, alone
Experimental: Mice were given an inoculum of 10^6 L1210 cells.
With reference to FIG. 4, BDF1 mice were given an inoculum of 10^6 L1210 cells. On Day 3, one grop received NSC-314926, 5 mg/kg. […] Another group received the two drugs in combination on the same schedule.

[1] = tested on: Ehrlich ascites carcinoma; assay: Survival times of BDF1 mice bearing the Ehrlich ascites carcinoma; type: in vivo; settings: Day 1 only; for T/C × 100: treated/control survival time
From the text: In addition to testing with L1210 leukemia, satisfactory responses against tests by additional animal cancer organisms have been shown as, for example, Ehrlich ascites tumor, melanoma B-16 and Colon 38. Testing was achieved using either the alkali metal (sodium) salt or the free acid.
Mice received an intraperitoneal inoculation of 10^7 tumor cells on Day 0; treatment was by the intraperitoneal route on Day 1 only. NSC-314926 [N-phosphonacetyl-L-aspartato(1,2-diaminocyclohexane)platinum(II)] was dissolved in 5% dextrose solution. There were 10 mice per group.

Solubility [2] = type: physicochemical
Experimental: One ml of each of the following solvents dissolved approximately 2 mg of Pt-268: […]

Solubility [3] = type: physicochemical; remark: listed apart in the source

N-phosphonacetyl-L-aspartato(1,2-diaminocyclohexane)platinum(II), Na [Pt-268]
therapeutic safety ratio (LD50/OptD50) (L1210 leukemia; I.P. LD50 / I.P. dose which is 50% of the optimal therapeutic dose): 4.5
optimal therapeutic dose (L1210 leukemia; L1210, I.P., Day 1 only, 5% glucose): approximately 80 mg/kg
optimal dose (L1210 leukemia; L1210, I.P., Days 1, 5, and 9, 5% glucose): approximately 20 mg/kg
LD50 (L1210 leukemia; tumored BDF1 mice (10^6 L1210 cells I.P.)): 180 mg/kg
effect on median life span, single agent (L1210 cells): hardly effective
Survival Time ([1]; 5 mg/kg I.P.): 16.5 days
T/C × 100 ([1]; 5 mg/kg I.P.): 123
Survival Time ([1]; 10 mg/kg I.P.): 18.8 days
T/C × 100 ([1]; 10 mg/kg I.P.): 140
Survival Time ([1]; 20 mg/kg I.P.): 24.3 days
T/C × 100 ([1]; 20 mg/kg I.P.): 181
Survival Time ([1]; 40 mg/kg I.P.): 25.3 days
T/C × 100 ([1]; 40 mg/kg I.P.): 189
Survival Time ([1]; 60 mg/kg I.P.): 28.8 days
T/C × 100 ([1]; 60 mg/kg I.P.): 215
Survival Time ([1]; 80 mg/kg I.P.): 29.0 days
T/C × 100 ([1]; 80 mg/kg I.P.): 216
Survival Time ([1]; 100 mg/kg I.P.): 31.7 days
T/C × 100 ([1]; 100 mg/kg I.P.): 237
Solubility of a 2-mg sample (Solubility [2]; CHCl3): very slightly soluble or insoluble
Solubility of a 2-mg sample (Solubility [2]; acetone): very slightly soluble or insoluble
Solubility of a 2-mg sample (Solubility [2]; cyclopentanone): very slightly soluble or insoluble
Solubility of a 2-mg sample (Solubility [2]; dimethylformamide): very slightly soluble or insoluble
Solubility of a 2-mg sample (Solubility [2]; dimethylsulfoxide): very slightly soluble or insoluble
Solubility of a 2-mg sample (Solubility [2]; ethanol): very slightly soluble or insoluble
Solubility of a 2-mg sample (Solubility [2]; heptane): very slightly soluble or insoluble
Solubility of a 2-mg sample (Solubility [2]; t-butanol): very slightly soluble or insoluble
Solubility of a 2-mg sample (Solubility [2]; tetrahydrofuran): very slightly soluble or insoluble
Solubility in CH3OH (Solubility [3]; CH3OH): ~ 0.2 mg/ml
Solubility in water (Solubility [3]; water): ~ 175 mg/ml
